For series [1], the system named is Mus musculus. As to the kind of experiment: Anticonvulsant activity in Mus musculus albino CF1 (mouse) assessed as protection against 6 Hz psychomotor seizure at 100 mg/kg, ip after 1 hr. The series is classed as functional. The following applies: route intraperitoneal.
Series [2] relates to Mus musculus. The series is described as follows: Neurotoxicity in Mus musculus albino CF1 (mouse) assessed as motor impairment at 100 mg/kg, ip after 0.25 hr. It counts as toxicity, organism-based. Details: dose 100 mg/kg, route intraperitoneal. To be noted: in vivo.
In series [3] the test system is Mus musculus. The series is described as follows: Anticonvulsant activity in Mus musculus albino CF1 (mouse) assessed as protection against 6 Hz psychomotor seizure at 100 mg/kg, ip after 2 hr. It counts as functional. To be noted: route intraperitoneal.
Series [4] concerns Mus musculus. As to the kind of experiment: Anticonvulsant activity in Mus musculus albino CF1 (mouse) assessed as protection against 6 Hz psychomotor seizure at 100 mg/kg, ip after 0.5 hr. The following applies: route intraperitoneal. The series is classed as functional.
Series [5] can be described thus: Octanol-phosphate buffer partition coefficient, log P of the compound after 24 hr. It counts as physicochemical.
For series [6], the system named is Mus musculus. The series is described as follows: Anticonvulsant activity in Mus musculus albino CF1 (mouse) assessed as protection against 6 Hz psychomotor seizure at 100 mg/kg, ip after 0.25 hr. The following applies: route intraperitoneal. It counts as functional.
Series [7] concerns Mus musculus. The series is described as follows: Neurotoxicity in Mus musculus albino CF1 (mouse) assessed as motor impairment at 100 mg/kg, ip after 2 hr. The series is classed as toxicity, organism-based. Also noted: dose 100 mg/kg, route intraperitoneal. To be noted: in vivo.
Series [8] relates to Mus musculus. The series is described as follows: Neurotoxicity in Mus musculus albino CF1 (mouse) assessed as motor impairment at 100 mg/kg, ip after 4 hr. The series is classed as toxicity, organism-based. Also noted: dose 100 mg/kg, route intraperitoneal. The following applies: in vivo.
In series [9] the test system is Mus musculus. As to the kind of experiment: Anticonvulsant activity in Mus musculus albino CF1 (mouse) assessed as protection against 6 Hz psychomotor seizure at 100 mg/kg, ip after 4 hr. It counts as functional. To be noted: route intraperitoneal.
For series [10], the system named is Mus musculus. As to the kind of experiment: Neurotoxicity in Mus musculus albino CF1 (mouse) assessed as motor impairment at 300 mg/kg, ip up to 4 hr. Also noted: dose 300 mg/kg, route intraperitoneal. The following applies: in vivo. The series is classed as toxicity, organism-based.
The subject of series [11] is Mus musculus. The series is described as follows: Neurotoxicity in Mus musculus albino CF1 (mouse) assessed as motor impairment at 100 mg/kg, ip after 1 hr. It counts as toxicity, organism-based. Details: dose 100 mg/kg, route intraperitoneal. To be noted: in vivo.
The subject of series [12] is Mus musculus. As to the kind of experiment: Neurotoxicity in Mus musculus albino CF1 (mouse) assessed as motor impairment at 100 mg/kg, ip after 0.5 hr. Also noted: dose 100 mg/kg, route intraperitoneal. To be noted: in vivo. It counts as toxicity, organism-based.

Structures are written as SMILES.

The values that follow come from ChEMBL document CHEMBL3045994, “Design, synthesis, and anticonvulsant evaluation of some novel 1, 3 benzothiazol-2-yl hydrazones/acetohydrazones” (Med Chem Res, 2012).

For orientation: logP means the decadic logarithm of the partition coefficient of the neutral form, usually between octanol and water. With `C(=N\Nc1nc2ccccc2s1)/c1ccc(Oc2ccccc2)cc1`, the Activity in the series on Mus musculus [1] is on record as 0%; with Mus musculus [2], “Non-toxic”; in the series with Mus musculus [3], 50%; in the series on Mus musculus [4], 25%; in the series with Mus musculus [6] it was 0%; in the series with Mus musculus [7], “Non-toxic”. Moreover, the Activity entry is given as “Non-toxic” with Mus musculus [8]; 0% in the series on Mus musculus [9]; “Non-toxic” in the series on Mus musculus [10]; “Non-toxic” with Mus musculus [11]; “Non-toxic” in the series on Mus musculus [12]. Besides, the logP at 24 h in [5] stood at 5.2.
With `O=[N+]([O-])c1ccc(Oc2ccc(/C=N/Nc3nc4ccccc4s3)cc2)cc1`, the Activity with Mus musculus [1] is 50%; with Mus musculus [2], “Non-toxic”; with Mus musculus [3], 0%; in the series with Mus musculus [4], 25%; in the series on Mus musculus [6], 50%; in the series with Mus musculus [7], “Non-toxic”. Further, the Activity result is recorded as “Non-toxic” in the series on Mus musculus [8]; 0% in the series with Mus musculus [9]; “Non-toxic” in the series with Mus musculus [10]; “Non-toxic” with Mus musculus [11]; “Non-toxic” in the series with Mus musculus [12]. In [5], this compound yielded a logP at 24 h of 5.1.
Consider `Cc1ccc(Oc2ccc(/C=N/Nc3nc4ccccc4s3)cc2)cc1`, for which the Activity with Mus musculus [1] is recorded as 0%; with Mus musculus [2], “Non-toxic”; in the series on Mus musculus [3] it was 0%; in the series with Mus musculus [4] it was 25%; in the series on Mus musculus [6], 25%; in the series on Mus musculus [7], “Non-toxic”. In addition, the Activity result in the series with Mus musculus [8] is on record as “Non-toxic”; in the series with Mus musculus [9], 0%; in the series on Mus musculus [10], “Non-toxic”; in the series on Mus musculus [11], “Non-toxic”; in the series with Mus musculus [12], “Non-toxic”. In series [5], this compound displayed a logP at 24 h of 5.4.
`Clc1ccc(Oc2ccc(/C=N/Nc3nc4ccccc4s3)cc2)cc1`: the Activity is recorded as 0% with Mus musculus [1]; “Non-toxic” in the series on Mus musculus [2]; 25% with Mus musculus [3]; 50% with Mus musculus [4]; 0% in the series with Mus musculus [6]; “Non-toxic” with Mus musculus [7]. The Activity entry is recorded as “Non-toxic” in the series with Mus musculus [8]; 0% in the series on Mus musculus [9]; “Non-toxic” with Mus musculus [10]; “Non-toxic” in the series with Mus musculus [11]; “Non-toxic” with Mus musculus [12]. The log partition coefficient (logP) at 24 h in [5] is 5.6.
For `Brc1ccc(Oc2ccc(/C=N/Nc3nc4ccccc4s3)cc2)cc1`, the Activity is reported as 25% with Mus musculus [1]; “Non-toxic” in the series with Mus musculus [2]; 50% with Mus musculus [3]; 50% with Mus musculus [4]; 0% in the series on Mus musculus [6]; “Non-toxic” with Mus musculus [7]. The Activity entry in the series with Mus musculus [8] was “Non-toxic”; with Mus musculus [9], 0%; in the series with Mus musculus [10], “Non-toxic”; in the series on Mus musculus [11], “Non-toxic”; with Mus musculus [12], “Non-toxic”. For the same compound, in series [5], the logP at 24 h was determined as 5.5.
For `Cc1cc(Oc2ccc(/C=N/Nc3nc4ccccc4s3)cc2)ccc1Cl`, the Activity was 0% in the series with Mus musculus [1]; “Non-toxic” in the series on Mus musculus [2]; 0% in the series with Mus musculus [3]; 0% with Mus musculus [4]; 25% with Mus musculus [6]; “Non-toxic” with Mus musculus [7]. In addition, the Activity result with Mus musculus [8] is listed as “Non-toxic”; in the series on Mus musculus [9], 0%; with Mus musculus [10], “Non-toxic”; with Mus musculus [11], “Non-toxic”; in the series with Mus musculus [12], “Non-toxic”. In series [5], this compound came in with a logP at 24 h of 5.5.
